Reference: patent publication US7939530B2, “Treatment of lymphoma using 10-propargyl-10-deazaaminopterin and gemcitabine” (Sloan-Kettering Institute for Cancer Research, priority 2004, dated 2011)

Tests used:
[1] = system: SKI-DLBCL-1 xenografts; assay: TUNEL immunohistochemical staining for apoptosis in xenografts; assay type: in vivo, mice; conditions: day 21; four doses on days 0, 3, 7 and 10; MTX 40 mg/kg, PDX 60 mg/kg
Method: Immunohistochemical staining for apoptosis as measured by terminal deoxynucleotide transferase-mediated nick end-labeling (TUNEL) was performed on SKI-DLBCL-1 xenografts from mice sacrificed at day 21 following initiation of antifolate therapy. Mice received four doses of saline, MTX (40 mg/kg) or PDX (60 mg/kg) on days 0, 3, 7 and 10.

[2] = system: human RL (transformed follicular) non-Hodgkin's lymphoma xenografts; assay: Subcutaneous lymphoma xenograft treatment; assay type: in vivo; conditions: MTX 40 mg/kg
From the text: (§1) In order to study the effects of PDX on lymphoma growth in vivo, subcutaneous transplantation models in NOD/SCID mice were generated using three established human lymphoma cell line representative of aggressive transformed FL (RL) and de novo extranodal DLBCL (HT; SKI-DLCL-1) histologies. Six to eight week old non-obsese diabetic severe combined immunodeficient (NOD/SCID) mice (Jackson Laboratories, Bar Harbor, Me.) were sub-lethally irradiated with […] from a gamma source and inoculated with 10×10^6 lymphoma cells via a subcutaneous route. When tumor volumes approached 100 mm^3, mice were divided into three groups, averaging 3-8 mice per group. Mice were treated with normal saline or the maximum tolerated dose (MTD) of MTX (40 mg/kg) or PDX (60 mg/kg) via an intraperitoneal route twice weekly for two weeks (four total doses). […] (Sirotnak, et al., Cancer Chemother. Pharmacol. 12: 26-30 (1984); Sirotnak et al., Cancer Chemother. Pharmacol. 42: 313-318 (1998).
(§2) Engraftment rates in this experiment ranged from 80 to 90%. Palpable tumors formed under the skin approximately 7-10 days after inoculation and were readily measurable with calipers. Mice with subcutaneous lymphoma growths survived an average of 40-50 days after inoculation.

[3] = system: human SKI-DLCL-1 (de novo diffuse large B cell) non-Hodgkin's lymphoma xenografts; assay: Subcutaneous lymphoma xenograft treatment; assay type: in vivo; conditions: MTX 40 mg/kg
From the text: as §1, §2

[4] = system: human HT (diffuse large B cell) non-Hodgkin's lymphoma xenografts; assay: Subcutaneous lymphoma xenograft treatment; assay type: in vivo; conditions: MTX 40 mg/kg; for Avg Tumor Diameter (mm ± SE): at the nadir of tumor regression
From the text: as §1, §2

[5] = system: SKI-DLCL-1 cells; assay: Induction of apoptosis (YO-PRO-1/propidium iodide flow cytometry); assay type: cell-based, human; conditions: all drugs 1 nM, total exposure 72 hours, sequential: first drug 24 hours prior to second
Method: Ara-C, PDX and Gem in combined and scheduled exposures. In each case, the total exposure time was 72 hours. In sequential treatments, the first drug was administered 24 hours prior to the second drug.
To assess apoptosis occurring as a result of combination therapies, apoptosis was assessed using two well standardized techniques. In the first (YO-PRO), cell membrane permeability was determined by measuring fluorescence of treated and control cells. 2×10^7 SKI-DLBCL cells were treated with either MTX, Ara-C, Gem or PDX alone or combinations of drug given together or scheduled. All drugs were assayed at equimolar concentrations (i.e. 1 nM). The incubation conditions were modeled after the in vitro cytotoxicity experiments. Single agent drugs or combinations of all drugs studied without schedule considerations were incubated for 72 hours, while drugs that were studied in some schedule were introduced in a 24+48 incubation scheme (i.e. drug B added 24 hours following drug A, then incubated for an additional 48 hours for a total incubation time of 72 hours). Cells were then collected, washed twice and re-suspended at a concentration of 1×10^6/mL in DPBS. Membrane permeability was detected via the differential cellular permeability of the fluorescent dyes YO-PRO®-1 and propidium iodide by flow cytometry, as per the manufacturer's guidelines (Vybrant apoptosis kit #4, Molecular Probes, Eugene, Oreg.). In addition to monitoring apoptosis, cell cycle kinetic analyses were also performed on all treated cells based the propidium iodide binding. Apoptotic cells were noted to be permeable to the green fluorescent dye YO-PRO®-1 (em 530, FL-1), and impermeable to the red fluorescent dye propidium iodide (em 575, FL-3). Typically, […] cells allow the entrance of both dyes, whereas living cells are impermeable to both dyes.

[6] = system: caspase 3 in SKI-DLCL-1 cells; assay: Caspase 3 activation (EnzChek Caspase-3 Assay Kit #2, Z-DEVD-R110 cleavage); assay type: cell-based, human; conditions: for Fluorescence at 485ex/527em: 1 nM, control 134.3; for Difference from control: fluorescence at 485ex/527em
Method: To further evaluate the activity of PDX and Gem combinations, Caspase activity was tested by EnzChek® Caspase-3 Assay Kit #2 (Molecular Probes) based upon the fluorometric detection of caspase-dependent Z-DEVD-R110 cleavage (rhodamine 110 bis-[N-CBZ-L-aspartyl-L-glutamyl-L-valyl-L-aspartic acid amide], a non-fluorescent bisamide), which, via a two step process, first yields the monoamide product (weakly fluorescent) and then the fluorescent product R110 (rhodamine 110, strongly fluorescent). Detection was performed on a Fluoroskan Ascent FL fluorescent plate reader (Thermo Lab Systems, Helsinki, Finland) according to the manufacturer's guidelines.

[7] = cited from earlier work
[8] = system: SKI-DLBCL-1 xenograft; assay: Second combination xenograft experiment (FIG. 5); conditions: SKI-DLBCL; PDX and Gem at one-quarter of the MTD (15 mg/kg); MTX, Ara-C alone at MTD; ip twice weekly, 4 doses
Method: (§3) The same type of test was repeated to assess the in vivo efficacy of using combination therapies. […] Schedule dependent treatment was also determined by pretreating animals with PDX or MTX followed 24 hours later with Gem or Ara-C, respectively. One cohort of animals was treated with Gem followed by PDX. In all cases, the control animals received intraperitoneal injections of normal saline.
(§4) Tumor bearing mice were assessed for weight loss and tumor volume at least twice weekly for the duration of the experiment. The data are expressed as the average tumor volume (mm3) per group as a function of time. Tumors were assessed by measuring the two largest perpendicular axes (l=length, w=width) with standard calipers. Tumor volume was calculated using the formula 4/3 πr^3 where r=(l+w)/4. Animals were sacrificed when one dimensional tumor diameter exceeded 2.0 cm, or after loss of more than 10% of their body weight in accordance with institutional guidelines. Animals were housed in standard shoe box cages in temperature and humidity constant rooms on a 12 hour light and dark cycle. Food and water were supplied ad libitum. Animals were maintained in core animal facilities under an institute approved animal protocol.

[9] = system: subcutaneous tumors of SKI; assay: Preliminary combination xenograft experiment; assay type: in vivo, irradiated NOD-SCID mice; conditions: for tumor growth compared to the control: MTX 40 mg/kg (MTD), Ara-C 300 mg/kg (MTD) or combination at one-half the MTD, all sacrificed by week three
Method: Given the experience that SKI-DLCL-1 is the most PDX resistant line in the panel, it was selected for these in vivo synergy experiments. […] All animals were treated with the maximum tolerated dose (MTD) of each drug, save the combination studies.

[10] = system: SKI-DLCL-1 lymphoma cells; assay: Trypan Blue Exclusion cytotoxicity assay of single agents and combinations; assay type: cell-based, human; conditions: MTX 10 nM, PDX 1 nM, Ara-C 40 nM, Gem 10 nM, control = 1
From the text: As set forth in greater detail in the examples herein, combination therapy using PDX and gemcitabine has been tested in vitro and in in vivo model systems for efficacy against lymphoma. Table 1 sets forth data obtained in a cytotoxicity assay (Example 2) using SKI-DLCL-1 lymphoma cells. SKI-DLCL-1 is a diffuse large b cell lymphoma (DLBCL) cell line that is particularly resistant to PDX.
In Table 1, the additive effect is in each case the % of control for the single agents multiplied together. The expected additive effect for PDX+Gem is better than for MTX and ara-C, because the agents are individually better. What is observed for both MTX/AraC combinations and PDX/Gem combinations is that the actual result is better than the predicted additive result. The extent of this synergism is quantified in Table 1 as (actual-additive)/additive so that the amount of reduction that occurs through the use of the combination is expressed as a percentage of the expected additive benefit.
To evaluate cytotoxicity of combination of PDX and GEM, a Trypan Blue Exclusion Assay was performed by aliquoting 5×10^5 SKI-DLBCL cells into each well of a 24 well plate with a final volume of 1 milliliter. Each drug was added in duplicate to the plate wells as follows: alone (MTX 10 nM, PDX 1 nM, Ara-C 40 nM, or Gem 10 nM), PDX+Gem or MTX+Ara-C for 48 h (hours). For the scheduled administration of drug, PDX or MTX alone were dispensed in additional duplicate wells. After 24 hours Gem and Ara-C were added to these wells, respectively, and incubated for 48 hours. At the end of incubation, 20 l of each cell culture was added to 20 l of trypan blue, after which […] was added to a hemocytometer (Hausser Scientific, Horsham, Pa.), where viable cells were counted based upon the presence (dead cells) or exclusion (live cells) of dye.

[11] = Second combination xenograft experiment (FIG. 5); conditions: SCID beige (CBSCBG-MM double), mouse, in vivo, ip
Method: as §3, §4

[12] = PDX 60 mg/kg ip twice weekly for two weeks

| SMILES | % change in apoptosis [5] [%] | Fluorescence at 485ex/527em [6] | Difference from control [6] | xenograft outcome in words [8] | tumor growth compared to the control [9] | fraction of control [10] | MTD at 2 weeks [11] [mg/kg] | other results |
| --- | --- | --- | --- | --- | --- | --- | --- | --- |
| CN(Cc1cnc2nc(N)nc(N)c2n1)c1ccc(C(=O)N[C@@H](CCC(=O)O)C(=O)O)cc1 [MTX, methotrexate] | −12.24 | 131 | −3.3 | sacrificed early due to excessive tumor growth | modest growth delay | 0.92 |  | apoptotic cells in tumor tissue (TUNEL) [1]: little or no evidence of apoptotic cells; Complete Regression (no/total) ([2]; PDX 60 mg/kg): 0/12; tumor regressions (% of mice) ([2]; PDX 60 mg/kg): no regressions; Avg Tumor Diameter (mm ± SE) [2, 12]: 10.9 ± 0.5 mm; Avg change in Tumor Volume (mm^3 ± SE) [2, 12]: +619 ± 108 mm^3; Complete Regression (no/total) ([3]; PDX 60 mg/kg): 0/10; tumor regressions / complete remissions (% of mice) ([3]; PDX 60 mg/kg): no regressions; Avg Tumor Diameter (mm ± SE) [3, 12]: 9.5 ± 0.4 mm; Avg change in Tumor Volume (mm^3 ± SE) [3, 12]: +299 ± 58 mm^3; Complete Regression (no/total) ([4]; PDX 60 mg/kg): 0/7; complete tumor regression (% of mice) ([4]; PDX 60 mg/kg): no tumor regression; Avg change in Tumor Volume (mm^3 ± SE) [4, 12]: +300 ± 225 mm^3; Avg Tumor Diameter (mm ± SE) ([4]; PDX 60 mg/kg): 8.7 ± 2.0 mm; Avg Tumor Diameter (mm ± SE) ([4]; PDX 60 mg/kg, listed as MDX): 8.7 mm; maximum tolerated dose (MTD) ([7]; intraperitoneal, twice weekly for two weeks): 40 mg/kg; toxic deaths at the MTD ([7]; nude mice): no toxic deaths |
| Nc1ccn([C@@H]2O[C@H](CO)[C@@H](O)C2(F)F)c(=O)n1 [Gem, 1-(2′,2′-difluoro-β-D-arabinofuranosyl) cytosine] | 33.76 | 195.4 | 61.1 |  |  | 0.72 | 60 | tumor volume as % of initial tumor volume ([9]; 60 mg/kg, regrowth by day 44 after initial response): 318% |
| Nc1ccn([C@@H]2O[C@H](CO)[C@@H](O)[C@@H]2O)c(=O)n1 [Ara-C, cytarabine] | −3.08 | 141.1 | 6.8 | sacrificed early due to excessive tumor growth | modest growth delay | 0.76 | 300 |  |
